biological target: T1, Glucocorticoid Receptor (Homo sapiens, UniProt P04150); assay: Agonistic mode of action on the glucocorticoid receptor (CHO-Gal4/GR luciferase reporter cell line); format: cell-based; details: CHO-Gal4/GR luciferase reporter cells; observed in the agonistic assay or the antagonistic assay (mode not given); read-out: IC50 or EC50 range
T1 construct: expressed in transfected cells
T1 sequence (P04150 524-758 limits assumed): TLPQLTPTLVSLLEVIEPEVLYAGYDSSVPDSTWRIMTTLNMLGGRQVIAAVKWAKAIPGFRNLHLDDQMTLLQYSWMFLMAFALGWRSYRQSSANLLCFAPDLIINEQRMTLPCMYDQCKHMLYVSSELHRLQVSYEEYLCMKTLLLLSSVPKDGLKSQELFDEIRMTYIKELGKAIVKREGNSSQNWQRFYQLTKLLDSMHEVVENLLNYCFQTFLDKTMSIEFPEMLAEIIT
Source text: Potential selective glucocorticoid receptor modulators of this intervention can be tested for modulation of the activity of the glucocorticoid receptor using cell-based assays. These assays involve a Chinese hamster ovary (CHO) cell line which contains fragments of the glucocorticoid receptor as well as fusion proteins. The glucocorticoid receptor fragments used are capable of binding the ligand (e.g. beclomethasone) to identify molecules that compete for binding with glucocorticoid receptor ligands. In more detail, the glucocorticoid receptor ligand binding domain is fused to the DNA binding domain (DBD) of the transcriptionfactor GAL4 (GAL4 DBD-GR) and is stably integrated into a CHO cell line containing a GAL4-UAS-Luciferase reporter construct. […] After cell lysis the luminescence that is produced by luciferase after addition of the substrate is detected and EC50 or IC50 values can be calculated. Engagement of molecules which induce gene expression via glucocortocoid receptor binding to the DNA leads to expression of the luciferase gene under the control of the fusion protein GAL4 DBD-GR and therefore to a dose-dependent increase of the luminescence signal. Binding of molecules which repress beclomethasone-induced gene expression of the luciferase gene under the control of the fusion protein GAL4 DBD-GR leads to a dose-dependent reduction of the luminescence signal.
The reporter cell line CHO-Gal4/GR consisted of a chinese hamster ovary (CHO) cell line (Leibniz Institute DSMZ—German Collection of Microorganisms and Cell Cultures GmbH: ACC-110) containing a firefly luciferase gene under the control of the GR ligand binding domain fused to the DNA binding domain (DBD) of GAL4 (GAL4 DBD-GR) stably integrated into CHO cells. This cell line was established by stable transfection of CHO cells with a GAL4-UAS-Luciferase reporter construct. In a subsequent step the ligand binding domain of the GR cloned into pIRES2-EGFP-GAL4 containing the DNA binding domain of GAL4 from pFA-AT2 was transfected. This fusion construct activated firefly luciferase expression under the control of a multimerized GAL4 upstream activation sequence (UAS). The signal of the emitted luminescence was recorded by the FLIPR^TETRA. This allowed for specific detection of ligand-induced activation of the GR and therefore for the identification of compounds with agonistic properties. The GAL4/UAS reporter was premixed with a vector that constitutively expressed Renilla luciferase, which served as an internal positive control for transfection efficiency.
The complete culture medium for the assay was: • DMEM F-12 (1:1) MIXTURE (LONZA cat. No: BE04-687F/U1) 500 mL • 5 mL of 100 mM Sodium Pyruvate (LONZA cat. No: BE12-115E) • 25 mL of 7.5% Sodium Bicarbonate (LONZA cat. No BE17-613E) • 6.5 mL of 1 M Hepes (LONZA cat. No: BE17-737E) • 5 mL of 100× Penicillin/Streptomycin (LONZA cat. No DE17-602E) • 50 mL of Fetal Bovine Serum (Euroclone cat. No ECS 0180L) • 0.25 mL of 10 mg/mL Puromycin (InvivoGen cat.: ant-pr-1) • 0.5 mL of 100 mg/mL Zeocin (InvivoGen cat.: ant-zn-1)
Cryo-preserved CHO-Gal4/GR cells were suspended in complete medium and 5000 cells/25 μl/well were seeded into the wells of 384-well polystyrene assay plates (Thermo Scientific, cat. #4332) and cultured at 37° C., 5% CO2 and 95% humidity. After 24 hours growth medium was carefully removed and replaced by 30111 Opti-MEM (GIBCO, cat. #31985062) as assay buffer. To test the compounds an 8-point half-log compound dilution curve was generated in 100% DMSO starting from a 2 mM stock and compounds were then diluted 1:50 in Opti-MEM. 10111 of compounds were then added to the wells containing 30 μl Opti-MEM resulting in a final assay concentration range from 10 μM to 0.003 μM in 0.5% DMSO. Compounds were tested at 8 concentrations in quadruplicate data points. […] Finally, cells were lysed with 20 μl of Triton/Luciferin solution and the signal of the emitted luminescence was recorded at the FLIPR^TETRA for 2 minutes. […]

Compound | IC50 or EC50 (antagonist or agonist mode, not stated per compound)
CCc1nnc2n1-c1c(C)c(-c3cc(F)cc4c3ccn4S(C)(=O)=O)cc(F)c1NC2(C)C [Example 323, 1-Ethyl-6-fluoro-8-(6-fluoro-1-methylsulfonyl-1H-indol-4-yl)-4,4,9-trimethyl-5H-[1,2,4]triazolo[4,3-a]quinoxaline] | 100 to 1000 nM
Cc1c(-c2cc(F)cc3c2cnn3S(C)(=O)=O)cc(F)c2c1-n1c(C)nnc1C(C)(C)N2 [Example 340, 6-Fluoro-8-(6-fluoro-1-methylsulfonyl-1H-indazol-4-yl)-1,4,4,9-tetramethyl-5H-[1,2,4]triazolo[4,3-a]quinoxaline] | 100 to 1000 nM
Cc1c(-c2cccc3c2ccn3S(=O)(=O)CF)cc(F)c2c1-n1c(C)nnc1C(C)(C)N2 [Example 349, 6-Fluoro-8-[1-(fluoro-methylsulfonyl)-1H-indol-4-yl]-1,4,4,9-tetramethyl-5H-[1,2,4]triazolo[4,3-a]quinoxaline] | 100 to 1000 nM
CCc1nnc2n1-c1c(C)c(-c3cccc4c(C)c[nH]c34)cc(F)c1NC2(C)C [Example 355, 1-Ethyl-6-fluoro-4,4,9-trimethyl-8-(3-methyl-1H-indol-7-yl)-5H-[1,2,4]triazolo[4,3-a]quinoxaline] | 100 to 1000 nM
Cc1c(-c2cccc3c2cnn3S(C)(=O)=O)cc(F)c2c1-n1c(C)nnc1C(C)(C)N2 [Example 378, 6-Fluoro-1,4,4,9-tetramethyl-8-(1-methylsulfonyl-1H-indazol-4-yl)-5H-[1,2,4]triazolo[4,3-a]quinoxaline] | 1000 to 15000 nM
Cc1c(-c2cccc3c2ccn3S(=O)(=O)C2CC2)cc(F)c2c1-n1c(C)nnc1C(C)(C)N2 [Example 391, 8-[1-(Cyclopropylsulfonyl)-1H-indol-4-yl]-6-fluoro-1,4,4,9-tetramethyl-5H-[1,2,4]triazolo[4,3-a]quinoxaline] | < 100 nM
Cc1c(-c2cc(F)cc3c2ccn3S(C)(=O)=O)c(F)c(F)c2c1-n1c(C)nnc1C(C)(C)N2 [Example 447, 6,7-Difluoro-8-(6-fluoro-1-methylsulfonyl-1H-indol-4-yl)-1,4,4,9-tetramethyl-5H-[1,2,4]triazolo[4,3-a]quinoxaline] | < 100 nM
Cc1c(-c2cccc3c2ccn3S(C)(=O)=O)c(F)c(F)c2c1-n1c(C)nnc1C(C)(C)N2 [Example 448, 6,7-difluoro-1,4,4,9-tetramethyl-8-(1-(methylsulfonyl)-1H-indol-4-yl)-4,5-dihydro-[1,2,4]triazolo[4,3-a]quinoxaline] | < 100 nM
Cc1c(-c2cc(F)cc3c2ccn3CCO)c(F)c(F)c2c1-n1c(C)nnc1C(C)(C)N2 [Example 449, 2-[4-(6,7-Difluoro-1,4,4,9-tetramethyl-5H-[1,2,4]triazolo[4,3-a]quinoxalin-8-yl)-6-fluoro-1H-indol-1-yl]-EtOH] | 100 to 1000 nM
Cc1nnc2n1-c1c(C#N)c(-c3cccc4c3ccn4C3CC3)cc(F)c1NC2(C)C [Example 450, 8-(1-cyclopropyl-1H-indol-4-yl)-6-fluoro-1,4,4-trimethyl-4,5-dihydro-[1,2,4]triazolo[4,3-a]quinoxaline-9-carbonitrile] | < 100 nM
Cc1c(-c2cccc3c2cnn3S(C)(=O)=O)c(F)c(F)c2c1-n1c(C)nnc1C(C)(C)N2 [Example 451, 6,7-Difluoro-1,4,4,9-tetramethyl-8-(1-methylsulfonyl-1H-indazol-4-yl)-5H-[1,2,4]triazolo[4,3-a]quinoxaline] | 100 to 1000 nM

Second part, the molecule after the results:

IC50 or EC50 (antagonist or agonist mode, not stated per compound) | Compound
100 to 1000 nM | CCc1nnc2n1-c1c(C)c(-c3cc(F)cc4c(C)c[nH]c34)cc(F)c1NC2(C)C [Example 316, 1-Ethyl-6-fluoro-8-(5-fluoro-3-methyl-1H-indol-7-yl)-4,4,9-trimethyl-5H-[1,2,4]triazolo[4,3-a]quinoxaline]
100 to 1000 nM | Cc1c(-c2cccc3c2ccn3CC(F)F)cc(F)c2c1-n1c(C)nnc1C(C)(C)N2 [Example 326, 8-[1-(2,2-Difluoro-ethyl)-1H-indol-4-yl]-6-fluoro-1,4,4,9-tetramethyl-5H-[1,2,4]triazolo[4,3-a]quinoxaline]
< 100 nM | CCS(=O)(=O)n1ccc2c(-c3cc(F)c4c(c3C)-n3c(C)nnc3C(C)(C)N4)cccc21 [Example 350, 8-[1-(Ethylsulfonyl)-1H-indol-4-yl]-6-fluoro-1,4,4,9-tetramethyl-5H-[1,2,4]triazolo[4,3-a]quinoxaline]
100 to 1000 nM | Cc1c(-c2cccc3c(C)n[nH]c23)cc(F)c2c1-n1c(C)nnc1C(C)(C)N2 [Example 352, 6-Fluoro-1,4,4,9-tetramethyl-8-(3-methyl-1H-indazol-7-yl)-5H-[1,2,4]triazolo[4,3-a]quinoxaline]
1000 to 15000 nM | Cc1c(-c2cccc3c2ccn3S(=O)(=O)C(C)C)cc(F)c2c1-n1c(C)nnc1C(C)(C)N2 [Example 366, 6-Fluoro-8-[1-(isopropylsulfonyl)-1H-indol-4-yl]-1,4,4,9-tetramethyl-5H-[1,2,4]triazolo[4,3-a]quinoxaline]
100 to 1000 nM | Cc1c(-c2cccc3c2ccn3CCN(C)C)cc(F)c2c1-n1c(C)nnc1C(C)(C)N2 [Example 375, [2-[4-(6-Fluoro-1,4,4,9-tetramethyl-5H-[1,2,4]triazolo[4,3-a]quinoxalin-8-yl)-1H-indol-1-yl]-ethyl]-dimethyl-amine]
< 100 nM | CCS(=O)(=O)n1ccc2c(-c3c(C)c4c(c(F)c3F)NC(C)(C)c3nnc(C)n3-4)cc(F)cc21 [Example 446, 8-(1-(ethylsulfonyl)-6-fluoro-1H-indol-4-yl)-6,7-difluoro-1,4,4,9-tetramethyl-4,5-dihydro-[1,2,4]triazolo[4,3-a]quinoxaline]
< 100 nM | Cc1c(-c2cc(F)cc3c2cnn3S(C)(=O)=O)c(F)c(F)c2c1-n1c(C)nnc1C(C)(C)N2 [Example 452, 6,7-Difluoro-8-(6-fluoro-1-methylsulfonyl-1H-indazol-4-yl)-1,4,4,9-tetramethyl-5H-[1,2,4]triazolo[4,3-a]quinoxaline]
< 100 nM | Cc1nnc2n1-c1c(CO)c(-c3cc(F)cc4c3ccn4S(C)(=O)=O)cc(F)c1NC2(C)C [Example 453, [6-Fluoro-8-(6-fluoro-1-methylsulfonyl-1H-indol-4-yl)-1,4,4-trimethyl-5H-[1,2,4]triazolo[4,3-a]quinoxalin-9-yl]-MeOH]
< 100 nM | Cc1c(-c2cc(F)cc3c(C)c[nH]c23)cc(Cl)c2c1-n1c(C)nnc1C(C)(C)N2 [Example 454, 6-Chloro-8-(5-fluoro-3-methyl-1H-indol-7-yl)-1,4,4,9-tetramethyl-5H-[1,2,4]triazolo[4,3-a]quinoxaline]

— patent US11981677B2, “Further substituted triazolo quinoxaline derivatives” (Grünenthal GmbH, priority 2018, dated 2024)
